{
  "source": "patent US7202233B2",
  "about": "“Alprazolam inclusion complexes and pharmaceutical compositions thereof” (Farmarc Nederland BV, priority 2000, dated 2007)",
  "origin": "cited, not measured here",
  "key": {"[1]": {"details": "above pH 6; FIG. 1 (Cho et al. 1983)"}, "[2]": {"details": "tablet formulation, conventional orogastric administration"}, "[3]": {"details": "sublingual use of commercially available oral tablet dosage forms"}, "[4]": {"details": "20% solution of 2-hydroxypropyl-beta-cyclodextrin"}},
  "data": [
    {"smiles": "Cc1nnc2n1-c1ccc(Cl)cc1C(c1ccccc1)=NC2", "note": "[alprazolam, 8-chloro-1-methyl-6-phenyl-4H-[1,2,4]triazolo[4,3a][1,4]benzodiazepine]", "values": [
      {"measurement": "presence of ring-open form as a function of pH", "setting": "[1]", "result": "no ring-open alprazolam above pH 6"},
      {"measurement": "time of maximum plasma levels post-dose", "setting": "[2]", "result": "0.7 to 1.8", "unit": "h"},
      {"measurement": "speed of onset, sublingual versus conventional orogastric administration", "setting": "[3]", "result": "no significant benefit"},
      {"measurement": "solubility enhancement", "setting": "[4]", "result": 16, "unit": "fold"}
    ]}
  ]
}
